# Measurements as given in patent US8759363B2, “Quinazoline-based T cell proliferation inhibitors” (Yissum Research Development Company of the Hebrew …, priority 2010, dated 2014).
# Where two headings read alike, the source gives them in different places.
# Columns and labels:
# NIH3T3 = NIH3T3 proliferation, BrdU uptake; type: cell-based; conditions: Mus musculus
# Description: Cells were depleted of fetal calf serum (FCS) for 12 hours. They were then stimulated to proliferate by addition of ConA (10 μg/ml) for PBMC from healthy individuals and for Jurkat cells, FCS (10%) for HEK293 and A375 cells, PDGF (30 ng/ml) for NIH 3T3 cells, and EGF (30 ng/ml) for MDA-MB-231, Cells (1×10^5) were cultured in 96-well plates for 3 days in the presence or absence of inhibitors at the concentrations specified in the text. Each condition was tested in duplicate wells.
# (§1) Proliferation was assessed by BrdU incorporation using a colorimetric ELISA kit (Roche, Germany). Subsequent to labeling with 10 μM BrdU, DNA was denatured and the cells were incubated with anti-BrdU-POD, prior to the addition of colorimetric substrate (TMB). The reaction product was quantified by measuring absorbance at 450 nm in an ELISA plate reader (ELx800 BIO-TEK Instruments Inc.).
# To characterize the mode of action of 2 (S101) in more detail, we first examined whether 2 inhibits non-hematopoietic cell lines. We studied the effect of 2 on the growth of four cell lines: NIH 3T3 (mouse embryonic fibroblasts), A-431 (human vulval carcinoma cells), MDA-MB-468 (human breast carcinoma cells), and PANC-1 (human pancreatic carcinoma cells) (FIGS. 1A-B). We also tested the inhibitors on human keratinocytes. […]
# [1] = tested on: PBMC depleted of CD3+ cells; experiment: Proliferation of PBMC depleted of CD3+ cells, BrdU; type: cell-based; conditions: Homo sapiens, stimulated by ODN2006 or LPS, stated as similar to ~0.5 μM, read-out: IC50 for PBMCs depleted of CD3+ cells
# Description: Blood samples were taken from healthy donors and loaded on a Ficoll density gradient to purify the PBMC population. T cells were purified by human anti-CD3 using an autoMACS instrument (Miltenyi Biotec, Bergisch-Gladbach, Germany), according to the manufacturer's instructions. The identity of T cells was confirmed by flow cytometry, as they stained positive for CD3. Cells were stimulated with ConA (10 μg/ml), ODN2006 (0.5 μg/ml; Enzo Life Sciences), or LPS (50 μg/ml; Sigma-Aldrich, Steinheim, Germany), for 72 h in the presence of the inhibitor, and their proliferation was measured in the BrdU incorporation assay as will be later described.
# as §1
# PBMC consist of a mixture of mononucleated cells, mostly T cells. To identify the cell type that was inhibited by 2, we first purified T cells from PBMC with an autoMACS apparatus (Miltenyi Biotec), using anti-CD3 antibodies. We were now able to compare three cell populations: total PBMC, CD3+ cells purified from PBMC, and PBMC that had been depleted of CD3+ cells. […]
# 2C (stimulated) cells = experiment: MLR with resting control cells, stimulated 2C cells; type: cell-based, mouse; conditions: 0.5 μM, 72 h MLR with IL-7; no inhibitor 3805
# Text: The aim of this test was to determine whether 2 affects only the proliferating cells or there is a general mechanism affecting all cell numbers. For this purpose we mixed 3 cell types: […]: BALB/c, 2C and OT1; […]: CB6F1, TEA and OT2. The OT1 and OT2 are splenocytes that were isolated from OT1 and OT2 mice (Jackson Laboratories, Bar Harbor, Me.),
# Thus, the ability to monitor the fate of proliferation and resting cells by FACS was enabled due to the use of the MLR described above for CD4+ and CD8+ and the addition of OT2 and OT1 splenocytes, respectively.
# Proliferating cells often secrete cytokines that induce survival of neighbouring cells; since the proliferation was expected to be inhibited we added 50 ng/ml of IL-7. This concentration is sufficient to keep the cells alive, but not to induce proliferation.
# Irradiated Balb splenocytes were incubated for 72 h with 2C, and OT1 splenocytes in the presence of IL-7 W/O inhibitor.
# The CD4+ and CD8+ were stimulated to proliferate, whereas in the absence of specific stimuli the OT1 and OT2 cell populations were resting, and theses cells were kept alive by the administration of IL-7. […] The number of 2C and OT1 cells that were treated with 0.5 μM 2 was 286 and 1148, respectively, while the number of 2C and OT1 cells that were treated with 0.5 μM 21 (control) was 4767 and 2468, respectively. This is depicted as a bar-graph in FIG. 8C.
# ZAP-70 = target: T1, ZAP-70 (Homo sapiens, UniProt P43403); experiment: SLP-76 kinase assay with ZAP-70 immunoprecipitated from treated Jurkat cells; type: cell-based; conditions: ZAP-70 from Jurkat cells treated 16 h, recombinant SLP-76 substrate, dose-dependent
# T1 construct: We also immunoprecipitated the ZAP-70 kinase from the treated/untreated cells; endogenous in cells; host or cells: Jurkat
# T1 sequence (P43403 whole entry): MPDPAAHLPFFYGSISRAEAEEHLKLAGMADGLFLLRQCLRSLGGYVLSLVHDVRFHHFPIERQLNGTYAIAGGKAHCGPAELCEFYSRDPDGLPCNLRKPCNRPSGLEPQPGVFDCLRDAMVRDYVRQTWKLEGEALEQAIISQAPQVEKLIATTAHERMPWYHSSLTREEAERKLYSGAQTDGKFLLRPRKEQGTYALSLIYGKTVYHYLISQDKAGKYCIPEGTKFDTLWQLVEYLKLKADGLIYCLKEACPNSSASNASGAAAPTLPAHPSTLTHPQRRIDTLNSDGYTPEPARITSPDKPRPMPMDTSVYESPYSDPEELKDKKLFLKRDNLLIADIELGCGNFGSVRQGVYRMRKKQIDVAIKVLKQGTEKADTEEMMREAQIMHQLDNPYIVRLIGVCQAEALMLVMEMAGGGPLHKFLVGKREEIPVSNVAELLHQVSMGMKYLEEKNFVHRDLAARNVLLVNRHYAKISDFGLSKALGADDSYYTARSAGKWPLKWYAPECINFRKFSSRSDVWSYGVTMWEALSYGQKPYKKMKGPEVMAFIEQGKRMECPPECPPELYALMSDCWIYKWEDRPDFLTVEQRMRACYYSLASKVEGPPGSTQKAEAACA
# Description: ZAP-70 was immunoprecipitated as described above. The immune complexes were washed 2 times with lysis buffer and 2 times with kinase buffer (50 mM Tris pH 7.5, 100 mM NaCl and 10 mM MgCl2). The beads were resuspended in 30 μl of kinase buffer containing 3 μg of His-tagged, full-length human SLP-76 protein (kindly provided by Dr. Yablonski, Technion, Israel), and the kinase reactions were initiated by the addition of 10 μl kinase buffer containing 5 μM ATP. The reactions proceeded for 15 min at 30° C. and were stopped by the addition of 6 μL EDTA (100 mM) and sample buffer. The results were analyzed by western blot [Yablonski, 1998]
# Jurkat cells were treated with 2 for 16 h, and SLP-76 phosphorylation was measured by immunoprecipitation of SLP-76 protein followed by western blotting with an antibody to the phosphorylated tyrosines of the protein (FIG. 6A). We also immunoprecipitated the ZAP-70 kinase from the treated/untreated cells, and tested its ability to phosphorylate recombinant SLP-76 protein as substrate (FIG. 6B). […] Presumably the remaining SLP-76 activity was sufficient to allow IL-2 secretion.
# PC3 = experiment: PC-3 proliferation, BrdU uptake; type: cell-based; conditions: Homo sapiens
compound,measurement,setting,value
"COc1cc(-c2nc(Nc3ccc(C)cc3)c3ccccc3n2)cc(OC)c1OC [Compound 2, N-p-tolyl-2-(3,4,5-trimethoxyphenyl)quinazolin-4-amine]",IC50,"NIH3T3; NIH3T3, PDGF (30 ng/ml) activated, read-out: IC50 of stimulated cells",~7 µM
same,IC50,"NIH3T3; NIH3T3, non-stimulated, read-out: IC50 of non-stimulated cells",~3 µM
same,IC50,[1],~500 nM
same,number of 2C (stimulated) cells,2C (stimulated) cells,286
same,activity of ZAP-70,ZAP-70,inhibited
same,IC50,"PC3; PC3, non-stimulated, read-out: IC50 of non-stimulated cells",~10 µM
same,IC50,"PC3; PC3, stimulated, read-out: IC50 of stimulated cells",> 10 µM
